From ChEMBL document CHEMBL1201862, “PubChem BioAssay data set” (2004)
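These data come from cells grown in 96-well plates and exposed to compound for 48 hours at five concentrations. GI50 marks 50% less growth.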 Calls of active or inactive are those of the source. Rule as the data show it: active = GI50 up to about 1.1 µM and inactive = higher.

Key:
Assay in all cases: NCI anticancer screen, dose series, 48 h
RXF 393 = system: RXF 393
M14 = system: M14
IGROV-1 = system: IGROV-1
SW-620 = system: SW-620
TK-10 = system: TK-10
SNB-19 = system: SNB-19
OVCAR-8 = system: OVCAR-8
SN12C = system: SN12C
SF-295 = system: SF-295
COLO 205 = system: COLO 205
HOP-92 = system: HOP-92
UO-31 = system: UO-31
A498 = system: A498
OVCAR-3 = system: OVCAR-3
786-0 = system: 786-0
NCI-H226 = system: NCI-H226
SK-MEL-2 = system: SK-MEL-2
HT-29 = system: HT-29
OVCAR-5 = system: OVCAR-5
KM12 = system: KM12

Measured: GI50

O=P1(O)c2ccccc2CS(=O)(=O)Cc2ccccc21
inactive: RXF 393 > 100 µM | M14 > 100 µM | IGROV-1 > 100 µM | SW-620 > 100 µM | TK-10 > 100 µM | SNB-19 > 100 µM | OVCAR-8 > 100 µM | SN12C > 100 µM | SF-295 > 100 µM | COLO 205 > 100 µM | HOP-92 > 100 µM | UO-31 > 100 µM | A498 > 100 µM | OVCAR-3 > 100 µM | 786-0 > 100 µM | NCI-H226 > 100 µM | SK-MEL-2 > 100 µM | HT-29 > 100 µM | OVCAR-5 > 100 µM | KM12 > 100 µM

COc1ccc(OC)c(/C=C/NC=O)c1
inactive: RXF 393 > 100 µM | M14 > 100 µM | IGROV-1 > 100 µM | SW-620 > 54.5 µM | TK-10 > 100 µM | SNB-19 > 100 µM | OVCAR-8 > 100 µM | SN12C > 100 µM | SF-295 > 100 µM | COLO 205 > 71.3 µM | HOP-92 > 100 µM | UO-31 > 100 µM | A498 > 100 µM | OVCAR-3 > 100 µM | 786-0 > 100 µM | NCI-H226 > 100 µM | SK-MEL-2 > 100 µM | HT-29 > 100 µM | OVCAR-5 > 100 µM | KM12 > 100 µM

C=C(NC(=O)C(=C)NC(=O)c1ccc2c(n1)-c1coc(n1)C(=C)NC(=O)C(=C)NC(=O)c1nc(oc1C)C(=C)NC(=O)C(C(C)(C)O)NC(=O)C(=C)NC(=O)c1coc(n1)/C(=C/C)NC(=O)[C@H]([C@@H](C)O)NC(=O)c1csc-2n1)C(N)=O (stereo not given in full)
inactive: RXF 393 > 87.5 µM | M14 55 µM | IGROV-1 61.1 µM | SW-620 > 87.5 µM | TK-10 > 87.5 µM | SNB-19 > 87.5 µM | OVCAR-8 > 87.5 µM | SN12C > 87.5 µM | SF-295 > 87.5 µM | COLO 205 72.9 µM | HOP-92 > 87.5 µM | UO-31 > 87.5 µM | A498 > 87.5 µM | OVCAR-3 > 87.5 µM | 786-0 > 87.5 µM | NCI-H226 > 87.5 µM | SK-MEL-2 > 87.5 µM | HT-29 > 8.75 µM | OVCAR-5 > 87.5 µM | KM12 66.7 µM

CC(C)(C)c1ccc(C(O)c2ccc(C(C)(C)C)cc2)cc1
inactive: RXF 393 17.1 µM | M14 15 µM | IGROV-1 16.1 µM | SW-620 14.6 µM | TK-10 21.1 µM | SNB-19 17.9 µM | OVCAR-8 14.8 µM | SN12C 13.1 µM | SF-295 14 µM | COLO 205 13.6 µM | HOP-92 12.6 µM | UO-31 16 µM | A498 18.7 µM | OVCAR-3 14.5 µM | 786-0 15.5 µM | NCI-H226 4.72 µM | SK-MEL-2 15.2 µM | HT-29 10.4 µM | OVCAR-5 16.6 µM | KM12 15.6 µM
